Laboratory results as given in patent US8927500B2, “Peptidomimetic macrocycles” (Aileron Therapeutics, Inc., priority 2012, dated 2015).
Read-outs that look alike come from different tables or passages of the source.

Key:
MDMX = molecular target: T1, MDMX (Homo sapiens, UniProt O15151); assay: Competitive fluorescence polarization assay for MDMX; format: binding; conditions: competitive FP assay; for IC50: read-out: IC50 (MDMX); for Ki: read-out: Ki (MDMX)
T1 sequence (O15151 1-125): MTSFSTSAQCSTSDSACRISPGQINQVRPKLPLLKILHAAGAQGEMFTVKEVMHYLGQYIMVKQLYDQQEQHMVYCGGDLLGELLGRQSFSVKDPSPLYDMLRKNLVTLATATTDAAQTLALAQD

MDM2 = MDM2 (Homo sapiens, UniProt Q00987); assay: Competitive fluorescence polarization assay for MDM2; format: binding; conditions: competitive FP assay, MDM2
Protocol: Dilute 1 mM (in 100% DMSO) of FAM labeled linear peptide with DMSO to 100 μM (dilution 1:10). Then, dilute from 100 μM to 10 μM with water (dilution 1:10) and then dilute with FP buffer from 10 μM to 40 nM (dilution 1:250). This is the working solution which will be a 10 nM concentration in well (dilution 1:4). […] Then, dilute from 5 mM to 500 μM with H2O (dilution 1:10) and then dilute with FP buffer from 500 μM to 20 μM (dilution 1:25).
Dilute 1 mM (in 100% DMSO) of FAM labeled linear peptide with DMSO to 100 μM (dilution 1:10). Then, dilute from 100 μM to 10 μM with water (dilution 1:10) and then dilute with FP buffer from 10 μM to 40 nM (dilution 1:250). This is the working solution which will be a 10 nM concentration in well (dilution 1:4). […] Dilute 10 mM (in 100% DMSO) with DMSO to 5 mM (dilution 1:2). Then, dilute from 5 mM to 500 μM with H2O (dilution 1:10) and then dilute with FP buffer from 500 μM to 20 μM (dilution 1:25). […] Transfer 10 μl of serial diluted unlabeled peptides to each well which is filled with 20 μl of 300 nM of protein. • 7. Add 10 μl of 10 nM (4×) of FAM labeled peptide into each well and incubate for 3 hr to read.

SJSA-1 cells = assay: Cell lysis by peptidomimetic macrocycles (LDH release); format: cell-based; conditions: 1 h at 37C
Protocol: On the day of the assay, media was exchanged with RPMI 1% FBS media, 90 uL of media per well.
10 mM stock solutions of the peptidomimetic macrocycles were prepared in 100% DMSO.
The negative control (non-lytic) sample was 0.5% DMSO alone and positive control (lytic) samples include 10 uM Melittin and 1% Triton X-100.
Cell plates were incubated for 1 hour at 37C. After the 1 hour incubation, the morphology of the cells is examined by microscope and then the plates were centrifuged at 1200 rpm for 5 minutes at room temperature. 40 uL of supernatant for each peptidomimetic macrocycle and control sample is transferred to clear assay plates.

Caspase 3 = Caspase 3 detection assay in SJSA1 cells; format: cell-based; conditions: 48 h, Caspase 3 activation over DMSO-treated cells; for caspase 0.3 uM: 0.3 uM peptide; for caspase 3 uM: 3 uM peptide; for caspase 10 uM: 10 uM peptide; for caspase 30 uM: 30 uM peptide

MDM2, sequence (Q00987 1-125): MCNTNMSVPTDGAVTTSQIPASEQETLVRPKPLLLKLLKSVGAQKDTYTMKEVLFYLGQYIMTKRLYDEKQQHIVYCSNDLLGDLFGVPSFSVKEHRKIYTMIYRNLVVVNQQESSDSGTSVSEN

IC50 (MDMX)	Ki (MDMX)	IC50 (MDM2; read-out: IC50 (MDM2))	Ki (MDM2; read-out: Ki (MDM2))	SMILES	6.25 uM % Lysed cells (1 h LDH) (SJSA-1 cells)	25 uM % Lysed cells (1 h LDH) (SJSA-1 cells)	50 uM % Lysed cells (1 h LDH) (SJSA-1 cells)	caspase 0.3 uM (Caspase 3)	caspase 3 uM (Caspase 3)	caspase 10 uM (Caspase 3)	caspase 30 uM (Caspase 3)	IC50 (MDM2; IC50 (MDM2))	Ki (MDM2; Ki (MDM2))	caspase 1 uM (Caspase 3; 1 uM peptide)
100 to 1000 nM	10 to 100 nM	10 to 100 nM	< 10 nM	CC(=O)N[C@@H](CC(C)C)C(=O)N[C@H](C(=O)N[C@@H](Cc1ccccc1)C(=O)N[C@]1(C)CCCCCCC=CCCC[C@@](C)(C(=O)N[C@@H](CO)C(=O)NC(C)(C)C(=O)N[C@@H](C)C(=O)N[C@@H](C)C(N)=O)NC(=O)[C@H](CC(C)C)NC(=O)[C@H](CCC(N)=O)NC(=O)[C@H](C)NC(=O)[C@H](Cc2c[nH]c3ccccc23)NC(=O)[C@H](Cc2ccc(O)cc2)NC(=O)[C@H](C)NC1=O)[C@@H](C)O (single isomer, unassigned) [compound 26]	2%	−1%	0%	1	1	3	14			
100 to 1000 nM	10 to 100 nM	10 to 100 nM	< 10 nM	CC[C@H](C)[C@H](NC(=O)[C@H](C)NC(=O)[C@H](C)NC(=O)[C@]1(C)CCCC=CCCCCCC[C@@](C)(NC(=O)[C@H](Cc2ccccc2)NC(=O)[C@@H](NC(=O)[C@H](CC(C)C)NC(C)=O)[C@@H](C)O)C(=O)N[C@@H](C)C(=O)N[C@@H](Cc2ccc(O)cc2)C(=O)N[C@@H](Cc2c[nH]c3ccccc23)C(=O)N[C@@H](C)C(=O)N[C@@H](CCC(N)=O)C(=O)N[C@@H](CC(C)C)C(=O)N1)C(=O)N[C@@H](C)C(N)=O (single isomer, unassigned) [compound 65]	0%	0%	2%	1	6	28	34			
100 to 1000 nM	10 to 100 nM	< 10 nM	< 10 nM	CC(=O)N[C@@H](CC(C)C)C(=O)N[C@H](C(=O)N[C@@H](Cc1ccccc1)C(=O)N[C@]1(C)CCCCCCC=CCCC[C@@](C)(C(=O)N[C@@H](CO)C(=O)N[C@@H](CC(C)C)C(=O)N[C@@H](C)C(N)=O)NC(=O)[C@H](CC(C)C)NC(=O)[C@H](CCC(N)=O)NC(=O)[C@H](C)NC(=O)[C@H](Cc2c[nH]c3ccccc23)NC(=O)[C@H](Cc2ccc(O)cc2)NC(=O)[C@H](C)NC1=O)[C@@H](C)O (single isomer, unassigned) [compound 118]	4%	2%	4%	1	2	18	27			
100 to 1000 nM	10 to 100 nM	< 10 nM	< 10 nM	CC(=O)N[C@@H](CC(C)C)C(=O)N[C@H](C(=O)N[C@@H](Cc1ccccc1)C(=O)N[C@]1(C)CCCCCCC=CCCC[C@@](C)(C(=O)N[C@@H](CO)C(=O)N[C@H](C(=O)N[C@@H](C)C(N)=O)C(C)C)NC(=O)[C@H](CC(C)C)NC(=O)[C@H](CCC(N)=O)NC(=O)[C@H](C)NC(=O)[C@H](Cc2c[nH]c3ccccc23)NC(=O)[C@H](Cc2ccc(O)cc2)NC(=O)[C@H](C(C)C)NC1=O)[C@@H](C)O (single isomer, unassigned) [compound 139]	−2%	−1%	−1%	1	2	9	18			
10 to 100 nM	10 to 100 nM	< 10 nM	< 10 nM	CC(=O)N[C@@H](CC(C)C)C(=O)N[C@H](C(=O)N[C@@H](Cc1ccccc1)C(=O)N[C@]1(C)CCCCCCC=CCCC[C@@](C)(C(=O)N[C@@H](CO)C(=O)N[C@H](C(=O)N[C@@H](CO)C(N)=O)C(C)C)NC(=O)[C@H](CC(C)C)NC(=O)[C@H](CCC(N)=O)NC(=O)[C@H](C)NC(=O)[C@H](Cc2c[nH]c3ccccc23)NC(=O)[C@H](Cc2ccc(O)cc2)NC(=O)[C@H](C(C)C)NC1=O)[C@@H](C)O (single isomer, unassigned) [compound 142]	1%	1%	3%	1	2	15	20			

The next lines start with the compound.

SMILES	IC50 (MDMX)	Ki (MDMX)	IC50 (MDM2; read-out: IC50 (MDM2))	Ki (MDM2; read-out: Ki (MDM2))	6.25 uM % Lysed cells (1 h LDH) (SJSA-1 cells)	25 uM % Lysed cells (1 h LDH) (SJSA-1 cells)	50 uM % Lysed cells (1 h LDH) (SJSA-1 cells)	caspase 0.3 uM (Caspase 3)	caspase 3 uM (Caspase 3)	caspase 10 uM (Caspase 3)	caspase 30 uM (Caspase 3)	IC50 (MDM2; IC50 (MDM2))	Ki (MDM2; Ki (MDM2))	caspase 1 uM (Caspase 3; 1 uM peptide)
CC[C@H](C)[C@H](NC(=O)[C@H](C)NC(=O)[C@H](C)NC(=O)[C@]1(C)CCCC=CCCCCCC[C@@](C)(NC(=O)[C@H](Cc2ccccc2)NC(=O)[C@@H](NC(=O)[C@H](CC(C)C)NC(C)=O)[C@@H](C)O)C(=O)N[C@@H](C)C(=O)N[C@@H](Cc2ccc(O)cc2)C(=O)N[C@@H](Cc2c[nH]c3ccccc23)C(=O)N[C@@H](C)C(=O)N[C@@H](C)C(=O)N[C@@H](CC(C)C)C(=O)N1)C(=O)N[C@@H](C(N)=O)C(C)C (single isomer, unassigned) [compound 77]	100 to 1000 nM	10 to 100 nM	10 to 100 nM	< 10 nM	−2%	1%	−1%	1	2	19	23			
CCCC[C@H](NC(=O)[C@H](C)NC(=O)[C@H](C)NC(=O)[C@]1(C)CCCC=CCCCCCC[C@@](C)(NC(=O)[C@H](Cc2ccccc2)NC(=O)[C@@H](NC(=O)[C@H](CC(C)C)NC(C)=O)[C@@H](C)O)C(=O)N[C@@H](C)C(=O)N[C@@H](Cc2ccc(O)cc2)C(=O)N[C@@H](Cc2c[nH]c3ccccc23)C(=O)N[C@@H](C)C(=O)N[C@@H](C)C(=O)N[C@@H](CC(C)C)C(=O)N1)C(=O)N[C@@H](C(N)=O)C(C)C (single isomer, unassigned) [compound 80]	100 to 1000 nM	10 to 100 nM	10 to 100 nM	< 10 nM	0%	1%	5%	1	2	13	20			
CC(=O)N[C@@H](CC(C)C)C(=O)N[C@H](C(=O)N[C@@H](Cc1ccccc1)C(=O)N[C@]1(C)CCCCCCC=CCCC[C@@](C)(C(=O)N[C@@H](CO)C(=O)N[C@@H](Cc2c[nH]c3ccccc23)C(=O)N[C@@H](C)C(N)=O)NC(=O)[C@H](CC(C)C)NC(=O)[C@H](CCC(N)=O)NC(=O)[C@H](C)NC(=O)[C@H](Cc2c[nH]c3ccccc23)NC(=O)[C@H](Cc2ccc(O)cc2)NC(=O)[C@H](C)NC1=O)[C@@H](C)O (single isomer, unassigned) [compound 120]	100 to 1000 nM	10 to 100 nM	10 to 100 nM	< 10 nM	0%	0%	6%	2	11	20	30			
CC(=O)N[C@@H](CC(C)C)C(=O)N[C@H](C(=O)N[C@@H](Cc1ccccc1)C(=O)N[C@]1(C)CCCCCCC=CCCC[C@@](C)(C(=O)N[C@@H](C)C(=O)N[C@@H](C)C(=O)N[C@@H](C)C(=O)N[C@@H](C)C(=O)N[C@@H](C)C(=O)N[C@@H](C)C(=O)N[C@H](C)C(N)=O)NC(=O)[C@H](CC(C)C)NC(=O)[C@H](CCC(N)=O)NC(=O)[C@H](C)NC(=O)[C@H](Cc2c[nH]c3ccccc23)NC(=O)[C@H](Cc2ccc(O)cc2)NC(=O)[C@H](C)NC1=O)[C@@H](C)O (single isomer, unassigned) [compound 317]					0%	0%	0%	3	9	26	35	10 to 100 nM	10 to 100 nM	4
